{"source": "paper PMC8310277", "about": "(Viruses, 2021)", "key": {"[1]": {"system": "pseudotyped virus expressing SARS-CoV-2 S protein from the P.1 variant", "assay_type": "cell-based"}, "[2]": {"system": "pseudotyped virus expressing SARS-CoV-2 S protein from the B.1.1.7 variant", "assay_type": "cell-based"}}, "note": "Where a SMILES comes first, the peptide text is derived from it. Bridges are numbered along the chain shown (N, C = ends)."}
{"smiles": "CC[C@H](C)[C@@H]1NC(=O)[C@H](CCC(=O)O)NC(=O)[C@@H]2CSSC[C@@H]3NC(=O)[C@H](Cc4ccc(O)cc4)NC(=O)[C@@H](NC(=O)[C@@H](NC(=O)[C@H](C)N)[C@@H](C)O)CSSC[C@@H](C(=O)N[C@@H](CCCNC(=N)N)C(=O)O)NC(=O)[C@H](CSSC[C@H](NC(=O)[C@H](CCCNC(=N)N)NC(=O)CNC(=O)[C@H]([C@@H](C)O)NC(=O)[C@H](CCCNC(=N)N)NC3=O)C(=O)N[C@@H](C)C(=O)N[C@@H]([C@@H](C)O)C(=O)N[C@@H](CCCNC(=N)N)C(=O)N[C@@H](CCC(=O)O)C(=O)N[C@@H](CO)C(=O)N[C@@H](CC(C)C)C(=O)N[C@@H](CO)C(=O)NCC(=O)N[C@@H](C(C)C)C(=O)N2)NC(=O)[C@H](CC(C)C)NC(=O)[C@H](CCCNC(=N)N)NC(=O)[C@H](Cc2ccc(O)cc2)NC(=O)[C@H](CC(C)C)NC(=O)[C@H](CCCNC(=N)N)NC(=O)CNC(=O)[C@H](CO)NC1=O", "note": "[HD5] (H-ATCYCRTGRCATRESLSGVCEISGRLYRLCCR-OH; disulfide 3-31, 5-20, 10-30 (inferred); N-terminus and C-terminus assumed)", "values": [{"measurement": "effect on P.1 variant (in words)", "setting": "[1]", "result": "suppressed the P.1 variant in a dose-dependent manner"}, {"measurement": "suppression of P1 infection", "setting": "[1]; 50 μg/mL", "result": 72, "unit": "%"}, {"measurement": "effect on B.1.1.7 variant (in words)", "setting": "[2]", "result": "moderate antiviral activity"}, {"measurement": "inhibition of B.1.1.7 infection", "setting": "[2]; 50 μg/mL", "result": 32, "unit": "%"}]}
